Measurements published in ChEMBL document CHEMBL2021763, “Solution NMR analysis of the binding mechanism of DIVS6 model peptides of voltage-gated sodium channels and the lipid soluble alkaloid veratridine” (Bioorg Med Chem, 2012).

Key:
[1] = Toxicity in ip dosed mouse; type: organism-based; conditions: in vivo
[2] = Binding affinity to transmembrane model peptide-1 of domain 4 segment 6 of rat skeletal muscle Nav1.4 by Marquardt and Levenberg algorithm analysis
[3] = Binding affinity to transmembrane model peptide-2 of domain 4 segment 6 of rat skeletal muscle Nav1.4 by Marquardt and Levenberg algorithm analysis

## C[C@H]1CC[C@@H]2N(C1)C[C@@H]1[C@](O)([C@@H](O)C[C@@]3(O)[C@@H]4CC[C@@H]5[C@]6(O)O[C@@]4(C[C@@]13O)[C@@]5(C)CC[C@@H]6O)[C@]2(C)O [VERACEVINE]
[1]
  LD50: > 100 mg/kg
[2]
  Kd: 890 µM

## COc1ccc(C(=O)O[C@H]2CC[C@@]3(C)[C@@H]4CC[C@H]5[C@]6(O)C[C@H](O)[C@@]7(O)[C@@H](CN8C[C@@H](C)CC[C@H]8[C@@]7(C)O)[C@]6(O)C[C@@]53O[C@]24O)cc1OC [VERATRIDINE]
[1]
  LD50: 9 mg/kg
[2]
  Kd: 1400 µM
[3]
  Kd: 490 µM
